# Source: patent US11466044B2 (WAYNE STATE UNIVERSITY, priority 2017, dated 2022)
# Where a name gives a salt, the structure may show the parent alone. Read-outs that look alike come from different tables or passages of the source.
# Assays:
# [1] = system: MRSA; experiment: MIC by broth microdilution, MRSA isolates; format: cell-based; settings: for MIC50: Staphylococcus aureus, MRSA
# [2] = system: E coli wild type; experiment: MIC by broth microdilution, wild type E coli; format: cell-based; settings: for MIC AG212 E. coli: strain AG212 E. coli (ATCC25922); for MIC / MIC50: Escherichia coli
# [3] = system: P aeruginosa; experiment: MIC by broth microdilution, P aeruginosa isolates; format: cell-based, Pseudomonas aeruginosa; settings: for MIC AG220 P. aerugin / MIC: strain AG220 Pseudomonas aeruginosa ATCC27853; for MIC50: Pseudomonas aeruginosa; for MIC: read-out: MIC AG220 P. aerugin
# [4] = system: E coli carrying specific resistance determinants; experiment: MIC by broth microdilution, E coli carrying specific resistance determinants; format: cell-based; settings: for MIC50 / MIC: Escherichia coli
# [5] = system: Klebsiella pneumonia AG215; experiment: MIC by broth microdilution, Klebsiella pneumonia; format: cell-based; settings: strain AG215 Klebsiella pneumonia; for MIC: Klebsiella pneumoniae, read-out: MIC AG215 K. pneumon
# [6] = system: Acinetobacter baumannii pittii AG225; experiment: MIC by broth microdilution, Acinetobacter baumannii; format: cell-based; settings: strain AG225 Acinetobacter baumannii pittii
# [7] = system: Enterobacter cloacae AG290; experiment: MIC by broth microdilution, Enterobacter cloacae; format: cell-based; settings: strain AG290 Enterobacter cloacae; for MIC: read-out: MIC AG290 E. cloacae
# [8] = system: M. smegmatis SZ380; experiment: MIC by broth microdilution, M. smegmatis; settings: for MIC SZ380 M. smegmatis: strain SZ380 Mycobacterium smegmatis; for MIC: Mycolicibacterium smegmatis, SZ380, read-out: MIC SZ380 M. smegmatis, strain SZ380 Mycobacterium smegmatis
# [9] = strain AG38, Table 1 (Example 2)
# [10] = strain AG39, Table 1 (Example 2)
# [11] = strain AG42, Table 1 (Example 2)
# [12] = strain AG44, Table 1 (Example 2)
# [13] = BM13 (AG06) wt, Table 2A (Example 2)
# [14] = strain AG01, Table 1 (Example 2)
# [15] = strain AG03, Table 1 (Example 2)
# [16] = strain AG55, Table 1 (Example 2)
# [17] = strain AG31, Table 1 (Example 2)
# [18] = strain AG32, Table 1 (Example 2)
# [19] = strain AG33, Table 1 (Example 2)
# [20] = strain AG86, Table 1 (Example 2)
# [21] = ATCC25922, strain AG212 E. coli (ATCC25922), read-out: MIC AG212 E. coli
smiles,measurement,setting,value
CCCC(O)C1OC(OC2C(N)CC(N)C(O)C2OC2OC(CO)C(OC3OC(CN)C(O)C(O)C3N)C2O)C(N)C(O)C1O (centres unmarked) [Compound 142],MIC50 MRSA AG38,[1]; [9],4 µg/mL
same,MIC50 MRSA AG39,[1]; [10],>128 µg/mL
same,MIC50 MRSA AG42,[1]; [11],>128 µg/mL
same,MIC50 MRSA AG44,[1]; [12],2 µg/mL
same,MIC50 E coli BM13 (AG06) wt,[2]; [13],1 µg/mL
same,MIC50 E coli pH430 WT,"[2]; pH430 WT, Table 2B (Example 2)",1 μg/ml
same,MIC50 E coli AG01,[2]; [14],8 µg/mL
same,MIC50 E coli AG03,[2]; [15],8 µg/mL
same,MIC50 E coli AG55,[2]; [16],8 µg/mL
same,MIC AG212 E. coli,[2],2 µg/mL
same,MIC50 P aeruginosa AG31,[3]; [17],>128 µg/mL
same,MIC50 P aeruginosa AG32,[3]; [18],>128 µg/mL
same,MIC50 P aeruginosa AG33,[3]; [19],>128 µg/mL
same,MIC50 P aeruginosa AG86,[3]; [20],>128 µg/mL
same,MIC AG220 P. aerugin,[3],>32 µg/mL
same,"MIC50 E coli AG036 ANT(4′,4″)",[4]; Table 2B (Example 2),32 to 64 µg/mL
same,MIC50 E coli AG037 APH(3′)-III,[4]; Table 2B (Example 2),>32 µg/mL
same,MIC50 E coli AG103 armA,[4]; Table 2B (Example 2),1 µg/mL
same,MIC50 E coli pH414 AAC(6′)-I,"[4]; pH414 AAC(6′)-I, Table 2B (Example 2)",1 μg/ml
same,MIC50 E coli pH415 AAC(6′)-II,"[4]; pH415 AAC(6′)-II, Table 2B (Example 2)",1 μg/ml
same,MIC50 E coli pH421 APH(3′)-I,[4]; Table 2B (Example 2),>32 μg/ml
same,MIC50 E coli pH422 APH(3′)-II,[4]; Table 2B (Example 2),>32 μg/ml
same,MIC50 E coli pH423 APH(3)-VI,[4]; Table 2B (Example 2),>32 μg/ml
same,MIC50 E coli pH432 ANT(4′),[4]; Table 2B (Example 2),1 μg/ml
same,MIC AG215 K. pneumon,[5],1 µg/mL
same,MIC AG225 A. baumannii,[6],2 µg/mL
same,MIC AG290 E. cloacae,[7],1 µg/mL
same,MIC SZ380 M. smegmatis,[8],0.5 µg/mL
CCCC(O)C1OC(OC2C(N)CC(N)C(O)C2OC2OC(CO)C(OC3OC(CN)C(O)C(O)C3N)C2O)C(N)C(O)C1O (centres unmarked) [Compound 143],MIC50 MRSA AG38,[1]; [9],32 to 64 µg/mL
same,MIC50 MRSA AG39,[1]; [10],>64 µg/mL
same,MIC50 MRSA AG42,[1]; [11],>64 µg/mL
same,MIC50 MRSA AG44,[1]; [12],16 µg/mL
same,MIC50 E coli BM13 (AG06) wt,[2]; [13],4 µg/mL
same,MIC50 E coli pH430 WT,"[2]; pH430 WT, Table 2B (Example 2)",4 μg/ml
same,MIC50 E coli AG01,[2]; [14],32 µg/mL
same,MIC50 E coli AG03,[2]; [15],32 µg/mL
same,MIC50 E coli AG55,[2]; [16],32 µg/mL
same,MIC AG212 E. coli,[2],8 µg/mL
same,MIC50 P aeruginosa AG31,[3]; [17],>64 µg/mL
same,MIC50 P aeruginosa AG32,[3]; [18],>64 µg/mL
same,MIC50 P aeruginosa AG33,[3]; [19],>64 µg/mL
same,MIC50 P aeruginosa AG86,[3]; [20],>64 µg/mL
same,MIC AG220 P. aerugin,[3],>128 µg/mL
same,"MIC50 E coli AG036 ANT(4′,4″)",[4]; Table 2B (Example 2),64 µg/mL
same,MIC50 E coli AG037 APH(3′)-III,[4]; Table 2B (Example 2),>128 µg/mL
same,MIC50 E coli AG103 armA,[4]; Table 2B (Example 2),16 to 32 µg/mL
same,MIC50 E coli pH421 APH(3′)-I,[4]; Table 2B (Example 2),>128 μg/ml
same,MIC50 E coli pH422 APH(3′)-II,[4]; Table 2B (Example 2),>128 μg/ml
same,MIC50 E coli pH423 APH(3)-VI,[4]; Table 2B (Example 2),32-64 μg/ml
same,MIC50 E coli pH432 ANT(4′),[4]; Table 2B (Example 2),4 μg/ml
same,MIC AG215 K. pneumon,[5],4 µg/mL
same,MIC AG225 A. baumannii,[6],4 to 8 µg/mL
same,MIC AG290 E. cloacae,[7],4 to 8 µg/mL
same,MIC SZ380 M. smegmatis,[8],16 µg/mL
CC(C)(O)C1O[C@H](O[C@@H]2C(N)C[C@@H](N)C(O)[C@H]2O[C@@H]2O[C@H](CO)[C@H](O[C@H]3O[C@@H](CN)[C@@H](O)C(O)C3N)C2O)C(N)[C@@H](O)[C@@H]1O (some centres unmarked) [Compound 159],MIC50,"[1]; strain AG38, Table 1 (Example 2), read-out: MIC50 MRSA AG38",8 to 16 µg/mL
same,MIC50,"[1]; strain AG39, Table 1 (Example 2), read-out: MIC50 MRSA AG39",> 128 µg/mL
same,MIC50,"[1]; strain AG42, Table 1 (Example 2), read-out: MIC50 MRSA AG42",> 128 µg/mL
same,MIC50,"[1]; strain AG44, Table 1 (Example 2), read-out: MIC50 MRSA AG44",4 to 8 µg/mL
same,MIC,[2]; [21],4 µg/mL
same,MIC50,"[2]; BM13 (AG06) wt, Table 2A (Example 2), read-out: MIC50 E coli BM13 (AG06) wt",4 µg/mL
same,MIC50,"[2]; pH430 WT, Table 2B (Example 2), read-out: MIC50 E coli pH430 WT",1 to 2 µg/mL
same,MIC50,"[2]; strain AG01, Table 1 (Example 2), read-out: MIC50 E coli AG01",8 µg/mL
same,MIC50,"[2]; strain AG03, Table 1 (Example 2), read-out: MIC50 E coli AG03",8 µg/mL
same,MIC50,"[2]; strain AG55, Table 1 (Example 2), read-out: MIC50 E coli AG55",8 µg/mL
same,MIC50,"[3]; strain AG31, Table 1 (Example 2), read-out: MIC50 P aeruginosa AG31",> 128 µg/mL
same,MIC50,"[3]; strain AG32, Table 1 (Example 2), read-out: MIC50 P aeruginosa AG32",> 128 µg/mL
same,MIC50,"[3]; strain AG33, Table 1 (Example 2), read-out: MIC50 P aeruginosa AG33",> 128 µg/mL
same,MIC50,"[3]; strain AG86, Table 1 (Example 2), read-out: MIC50 P aeruginosa AG86",> 128 µg/mL
same,MIC,[3],> 64 µg/mL
same,MIC50,"[4]; read-out: MIC50 E coli AG036 ANT(4′,4″), AG036 ANT(4′,4″), Table 2B (Example 2)",16 to 32 µg/mL
same,MIC50,"[4]; read-out: MIC50 E coli AG037 APH(3′)-III, AG037 APH(3′)-III, Table 2B (Example 2)",> 64 µg/mL
same,MIC50,"[4]; read-out: MIC50 E coli AG103 armA, AG103 armA, Table 2B (Example 2)",4 to 8 µg/mL
same,MIC50,"[4]; read-out: MIC50 E coli pH421 APH(3′)-I, pH421 APH(3′)-I, Table 2B (Example 2)",> 64 µg/mL
same,MIC50,"[4]; read-out: MIC50 E coli pH422 APH(3′)-II, pH422 APH(3′)-II, Table 2B (Example 2)",> 64 µg/mL
same,MIC50,"[4]; read-out: MIC50 E coli pH423 APH(3)-VI, pH423 APH(3)-VI, Table 2B (Example 2)",8 µg/mL
same,MIC50,"[4]; read-out: MIC50 E coli pH432 ANT(4′), pH432 ANT(4′), Table 2B (Example 2)",2 µg/mL
same,MIC,[5],1 to 2 µg/mL
same,MIC,[6],4 µg/mL
same,MIC,[7],2 µg/mL
same,MIC,[8],2 µg/mL
"CC(=O)NC[C@H]1O[C@@H](O[C@@H]2C(O)[C@H](N)CC(N)[C@H]2O[C@H]2OC(CO)[C@@H](O)[C@H](O)C2N)C(O)[C@H]1O[C@H]1O[C@@H](CN)[C@@H](O)C(O)C1N (some centres unmarked) [Compound 165, 5″-Acetamido-5″-deoxy-paromomycin-acetate salt]",MIC50,"[1]; strain AG38, Table 1 (Example 1), read-out: MIC50 MRSA AG38",16 to 32 µg/mL
same,MIC50,"[1]; strain AG39, Table 1 (Example 1), read-out: MIC50 MRSA AG39",> 128 µg/mL
same,MIC50,"[1]; strain AG42, Table 1 (Example 1), read-out: MIC50 MRSA AG42",> 128 µg/mL
same,MIC50,"[1]; strain AG44, Table 1 (Example 1), read-out: MIC50 MRSA AG44",16 µg/mL
same,MIC,"[2]; AG006 wt, Table 2 (Example 1), read-out: MIC E coli AG006 wt",4 to 8 µg/mL
same,MIC,[2]; [21],16 µg/mL
same,MIC,"[2]; clinical isolate AG160 WT, Table 2 (Example 4), read-out: MIC AG160 E. coli WT",8 µg/mL
same,MIC,"[2]; engineered strain pH430 WT, Table 2 (Example 4), read-out: MIC pH430 E. coli WT",8 to 16 µg/mL
same,MIC50,"[2]; strain AG01, Table 1 (Example 1), read-out: MIC50 E coli AG01",64 µg/mL
same,MIC50,"[2]; strain AG03, Table 1 (Example 1), read-out: MIC50 E coli AG03",32 to 64 µg/mL
same,MIC50,"[2]; strain AG55, Table 1 (Example 1), read-out: MIC50 E coli AG55",32 µg/mL
same,MIC50,"[3]; strain AG31, Table 1 (Example 1), read-out: MIC50 P aeruginosa AG31",> 128 µg/mL
same,MIC50,"[3]; strain AG32, Table 1 (Example 1), read-out: MIC50 P aeruginosa AG32",> 128 µg/mL
same,MIC50,"[3]; strain AG33, Table 1 (Example 1), read-out: MIC50 P aeruginosa AG33",> 128 µg/mL
same,MIC50,"[3]; strain AG86, Table 1 (Example 1), read-out: MIC50 P aeruginosa AG86",> 128 µg/mL
same,MIC,[3],> 64 µg/mL
same,MIC,[4]; read-out: MIC AG037 E. coli APH(3′)-III,> 64 µg/mL
same,MIC,[4]; read-out: MIC pH421 E. coli APH(3′)-I,> 64 µg/mL
same,MIC,[4]; read-out: MIC pH422 E. coli APH(3′)-II,> 64 µg/mL
same,MIC,[4]; read-out: MIC pH423 E. coli APH(3′)-VI,> 64 µg/mL
same,MIC,[5],8 µg/mL
same,MIC,[6],8 to 16 µg/mL
same,MIC,[7],8 µg/mL
same,MIC,[8],32 µg/mL
